In patent US20050176945A1, “Cloning and characterization of slc26a7 and slc26a9 anion exchangers” (priority 2002, published 2005):

Experiments:
SLC26A9 [1] = molecular target: T1, SLC26A9 (Mus musculus, UniProt Q8BU91, G332D/L540F); details: 25 mM Cl- added to the medium
T1 sequence (Q8BU91 1-790 G332D/L540F): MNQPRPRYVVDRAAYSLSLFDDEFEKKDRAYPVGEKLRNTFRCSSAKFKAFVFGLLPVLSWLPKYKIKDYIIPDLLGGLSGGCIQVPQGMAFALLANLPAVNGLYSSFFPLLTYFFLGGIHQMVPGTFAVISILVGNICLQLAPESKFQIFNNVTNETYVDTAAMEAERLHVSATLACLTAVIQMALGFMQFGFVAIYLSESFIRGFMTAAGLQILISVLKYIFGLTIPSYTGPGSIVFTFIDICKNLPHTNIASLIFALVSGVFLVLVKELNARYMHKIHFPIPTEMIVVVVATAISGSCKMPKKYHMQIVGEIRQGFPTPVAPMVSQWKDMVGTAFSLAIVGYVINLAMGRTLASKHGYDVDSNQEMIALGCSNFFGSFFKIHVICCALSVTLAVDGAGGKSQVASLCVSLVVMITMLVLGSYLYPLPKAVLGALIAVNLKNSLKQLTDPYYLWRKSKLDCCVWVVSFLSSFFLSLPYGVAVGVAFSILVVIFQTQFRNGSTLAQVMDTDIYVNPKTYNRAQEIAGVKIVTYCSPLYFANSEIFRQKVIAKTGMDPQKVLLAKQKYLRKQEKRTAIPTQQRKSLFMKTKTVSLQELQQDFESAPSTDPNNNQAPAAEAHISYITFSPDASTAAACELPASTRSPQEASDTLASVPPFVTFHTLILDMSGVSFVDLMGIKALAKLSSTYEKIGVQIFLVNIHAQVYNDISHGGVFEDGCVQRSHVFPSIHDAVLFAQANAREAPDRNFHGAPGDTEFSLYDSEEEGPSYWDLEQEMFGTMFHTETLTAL
Experimental: (§1) Oocytes expressing SLC26A2, SLC26A7, or SLC26A9, or control oocytes (H2O) were incubated in medium containing ^35SO4^2− for one hour. (−), Cl^−-free medium; (+), 25 mM Cl^− added to the medium; hr, hour.
(§2) Full-length mouse SLC26A7 and SLC26A9 cDNAs were cloned into the Xenopus expression vector pGEMHE (Liman et al., 1992). SLC26A6 and SLC26A2 constructs were also prepared for use as controls in transport assays (Example 7). Expression constructs were linearized, and cRNA was transcribed in vitro using T7 RNA polymerase and a […] MMACHINE® transcription kit (Ambion, Inc. of Austin, Tex., United States of America). Defolliculated oocytes were injected with 25 nl to 50 nl of water or with a solution containing cRNA at a concentration of 0.5 μg/μl (12.5 ng to 25 ng per oocyte) using a Nanoliter-2000 injector (WPI Instruments of Sarasota, Fla., United States of America). Oocytes were incubated at 17° C. in 50% Leibovitz's L-15 media supplemented with penicillin/streptomycin (1000 units/ml) and glutamine for 2-3 days for uptake assays.
(§3) For sulphate uptake assays, oocytes were pre-incubated for 20 minutes in chloride-free uptake medium (100 mM NMDG gluconate, 2 mM potassium gluconate, 1 mM calcium gluconate, 1 mM magnesium gluconate, 10 mM HEPES-Tris, pH 6.0 or pH 7.5 as indicated), followed by a 60-minute period for uptake in the same medium supplemented with 1 mM K2^35SO4 (40 μCi/ml). The cells were then washed three times in uptake buffer with 5 mM cold K2SO4 to remove tracer activity in the extracellular fluid. The oocytes were dissolved individually in 10% SDS, and tracer activity was determined by scintillation counting. Uptake of chloride, formate, and oxalate was assayed using the same chloride-free uptake solutions, substituting 8.3 mM ^36Cl, 500 μM [^14C]oxalate, or 50 μM [^14C]formate for labeled sulphate. Each uptake experiment included 12-18 oocytes in each experimental group, and results were reported as means±SEM. […]

SLC26A2 = details: 25 mM Cl- added to the medium
Experimental: as §1, §2, §3

SLC26A7 [2] = molecular target: T2, SLC26A7 (Mus musculus, UniProt Q8R2Z3, F233L/S639T); details: 25 mM Cl- added to the medium
T2 sequence (Q8R2Z3 1-656 F233L/S639T): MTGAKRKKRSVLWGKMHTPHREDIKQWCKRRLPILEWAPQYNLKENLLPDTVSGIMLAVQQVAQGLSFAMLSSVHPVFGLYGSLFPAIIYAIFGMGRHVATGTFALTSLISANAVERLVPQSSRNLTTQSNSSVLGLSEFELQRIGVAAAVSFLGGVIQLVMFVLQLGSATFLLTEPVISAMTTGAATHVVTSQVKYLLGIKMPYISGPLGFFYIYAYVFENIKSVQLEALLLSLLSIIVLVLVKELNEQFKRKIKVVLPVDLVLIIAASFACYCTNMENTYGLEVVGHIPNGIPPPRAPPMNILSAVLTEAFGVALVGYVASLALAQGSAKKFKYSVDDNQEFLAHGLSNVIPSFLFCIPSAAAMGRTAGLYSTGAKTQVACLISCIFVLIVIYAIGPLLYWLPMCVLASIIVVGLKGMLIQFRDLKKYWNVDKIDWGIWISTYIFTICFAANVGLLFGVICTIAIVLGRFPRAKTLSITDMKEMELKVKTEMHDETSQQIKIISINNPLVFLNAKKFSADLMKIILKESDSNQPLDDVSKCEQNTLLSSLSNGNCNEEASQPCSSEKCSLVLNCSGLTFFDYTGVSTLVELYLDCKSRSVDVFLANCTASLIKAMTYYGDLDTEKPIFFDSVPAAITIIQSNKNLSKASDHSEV
Experimental: as §1, §2, §3

SLC26A7 [3] = molecular target: T2, SLC26A7; experiment: 36Cl- uptake in SLC26A7-injected Xenopus oocytes; type: cell-based; set-up: Full-length mouse SLC26A7 and SLC26A9 cDNAs were cloned into the Xenopus expression vector pGEMHE; expressed in transfected cells; host or cells: Xenopus laevis oocytes injected with cRNA transcribed in vitro from pGEMHE; details: 1 mM DIDS, pH 6.0, isotonic and hypotonic conditions
Experimental: FIG. 3A is a bar graph that depicts ^36Cl^− uptake (pmol/oocyte/h) as a function of extracellular osmolality and pH in SLC26A7-injected oocytes (A7) and water injected control oocytes (H2O). Oocytes were incubated during the pre-uptake period and uptake period at varying osmolaltiy at either pH 7.4 (open bars), pH 6.0 (black bars), or at pH 6.0 in the presence of 1 mM DIDS (grey bars). ISO, isotonic osmolality, 210 mOsm/kg; HYPO, hypotonic osmolality, 120 mOsm/kg; HYPER, hypertonic osmolality, 300 mOsm/kg; h, hour.

SLC26A9 [4] = molecular target: T1, SLC26A9; experiment: 36Cl- uptake (Cl-Cl exchange) in SLC26A9-injected Xenopus oocytes; type: cell-based; set-up: Full-length mouse SLC26A7 and SLC26A9 cDNAs were cloned into the Xenopus expression vector pGEMHE; expressed in transfected cells; host or cells: Xenopus laevis oocytes injected with cRNA transcribed in vitro from pGEMHE; details: 1 mM DIDS, pH 6.0
Experimental: FIG. 3B is a bar graph that depicts DIDS inhibition of ^36Cl^− uptake (pmol/oocyte/h) in SLC26A9injected oocytes (Slc26a9) and water-injected control oocytes (H2O). Oocytes were incubated during the pre-uptake period and uptake period at either pH 7.4 (open bars), pH 6.0 (black bars), or at pH 6.0 in the presence of 1 mM DIDS (grey bars). H, hour.
FIG. 3C is a bar graph that depicts a lack of cis-inhibition of Cl^−-Cl^− exchange in oocytes expressing SLC26A9 or in control oocytes (H2O). Oocytes were incubated in medium containing ^36Cl^− for one hour in the absence (control) or presence of 25 mM of the indicated anions.

Row | SMILES | effect of extracellular Cl- on 35SO4 2- uptake in SLC26A9-injected oocytes (SLC26A9 [1]) | effect of extracellular Cl- on 35SO4 2- uptake by SLC26A2 (SLC26A2) | effect of extracellular Cl- on 35SO4 2- uptake in SLC26A7-injected oocytes (SLC26A7 [2]) | DIDS sensitivity of SLC26A7 36Cl- uptake activity (SLC26A7 [3]) | DIDS sensitivity of Cl-Cl exchange mediated by SLC26A9 (SLC26A9 [4])
1 | Cl [Cl^−, chloride] | without activating | significantly inhibited | without activating |  | 
2 | O=S(=O)(O)c1cc(N=C=S)ccc1C=Cc1ccc(N=C=S)cc1S(=O)(=O)O [DIDS, 4,4′-diisothiocyanatostilbene-2,2′-disulfonic acid] |  |  |  | modestly DIDS-sensitive | moderately sensitive
